Experiments:
[1] = 101.33 kPa; for mass density: Vibrating tube method; for viscosity: Falling or rolling sphere viscometry
[2] = xn = mol fraction of the nth substance listed; conditions: for viscosity / mass density: 101.3 kPa, Liquid; for viscosity: Falling or rolling sphere viscometry; for mass density: Vibrating tube method; for surface tension liquid-gas: 298.15 K, Ring tensiometer

CC(=O)CCC(=O)O [4-oxopentanoic acid]
[1], Metastable liquid
Conditions	mass density [kg/m3]
293.15 K	1140.1
303.15 K	1131.6
313.15 K	1123
323.15 K	1114.5
333.15 K	1105.9
343.15 K	1097.4

CC(=O)CCC(=O)O [4-oxopentanoic acid] + C[N+](C)(C)CCO.[Cl-]
[2], x2 = 0.333
Conditions	mass density [kg/m3]	viscosity [mPa·s]
293.15 K	1141.9	362.08
303.15 K	1135.2	183.72
313.15 K	1128.5	103.46
323.15 K	1121.9	62.8
333.15 K	1115.3	39.59

Conditions	surface tension liquid-gas [mN/m]
[2], x2 = 0.333	39.95

CCCCO [butan-1-ol]
[1], Liquid
Conditions	mass density [kg/m3]	viscosity [mPa·s]
293.15 K	809.5	2.95
303.15 K	801.9	2.28
313.15 K	794.1	1.79
323.15 K	786.2	1.42
333.15 K	778.1	1.15

C[N+](C)(C)CCO.[Cl-] [choline chloride] + OCCO
[2], x1 = 0.334
Conditions	mass density [kg/m3]	viscosity [mPa·s]
293.15 K	1119.5	58.81
303.15 K	1113.9	38.9
313.15 K	1108.1	27.04
323.15 K	1102.5	19.74
333.15 K	1096.9	14.69

Conditions	surface tension liquid-gas [mN/m]
[2], x1 = 0.334	45.66

C[N+](C)(C)CCO.[Cl-] [choline chloride] + Oc1ccccc1
[2], x1 = 0.333
Conditions	mass density [kg/m3]	viscosity [mPa·s]
293.15 K	1099.4	129.98
303.15 K	1093.4	74
313.15 K	1087.4	44.33
323.15 K	1081.5	30.23
333.15 K	1075.6	21.5

Conditions	surface tension liquid-gas [mN/m]
[2], x1 = 0.333	35.46
